According to the supplement of paper PMC4862054:

Columns and labels:
Settings in all cases: 72 h
HCC1937 [1] = system: HCC1937
Method in brief: (§1)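 To measure viability, fluorescence at 560/590 nm was read after 2.5 µl CellTiter-Blue had been added for 2 h at 37 °C. Cells from breast cancer lines had been seeded in 20 µl suspension onto 384-well plates pre-loaded with compound dissolved in 5 µl medium and kept for 72 h. EC50 comes from a fitted percent-inhibition dose-response curve censored at the highest concentration, after per-plate normalisation to vehicle and a positive kill control, Z'-factor checks, and removal of rows with zero drug sensitivity score.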

CAL-120 [2] = system: CAL-120
Method in brief: as §1

MDA-MB-468 [3] = system: MDA-MB-468
Method in brief: as §1

HCC1143 [4] = system: HCC1143
Method in brief: as §1

MFM-223 [5] = system: MFM-223
Method in brief: as §1

SK-BR-3 [6] = system: SK-BR-3
Method in brief: as §1

MDA-MB-436 [7] = system: MDA-MB-436
Method in brief: as §1

BT-549 [8] = system: BT-549
Method in brief: as §1

HCC1599 [9] = system: HCC1599
Method in brief: as §1

BT-474 [10] = system: BT-474
Method in brief: as §1

Hs578T [11] = system: Hs578T
Method in brief: as §1

MDA-MB-231 [12] = system: MDA-MB-231
Method in brief: as §1

MDA-MB-453 [13] = system: MDA-MB-453
Method in brief: (§2)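 The plates used were 384-well plates holding compound at 5 concentrations in 10-fold steps across a compound-specific 10,000-fold range, into which breast cancer cell lines were seeded in 20 µl suspension. Following 72 h incubation, CellTox Green fluorescence was read at 485/520 nm, and CellTiter-Glo luminescence was read after 10 min at room temperature. Normalisation on each plate used 0.1 % DMSO and a positive kill control. Dose-response curves gave the EC50, which was censored at the top concentration.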

HDQ-P1 [14] = system: HDQ-P1
Method in brief: as §2

HCC1937 [15] = system: HCC1937; remark: listed apart in the source
Method in brief: as §2

CAL-120 [16] = system: CAL-120; remark: listed apart in the source
Method in brief: as §2

CAL-85-1 [17] = system: CAL-85-1
Method in brief: as §2

HCC1143 [18] = system: HCC1143; remark: listed apart in the source
Method in brief: as §2

CAL-148 [19] = system: CAL-148
Method in brief: as §2

MFM-223 [20] = system: MFM-223; remark: listed apart in the source
Method in brief: as §2

DU-4475 [21] = system: DU-4475
Method in brief: as §2

SK-BR-3 [22] = system: SK-BR-3; remark: listed apart in the source
Method in brief: as §2

MDA-MB-436 [23] = system: MDA-MB-436; remark: listed apart in the source
Method in brief: as §2

BT-549 [24] = system: BT-549; remark: listed apart in the source
Method in brief: as §2

HCC1599 [25] = system: HCC1599; remark: listed apart in the source
Method in brief: as §2

Hs578T [26] = system: Hs578T; remark: listed apart in the source
Method in brief: as §2

MDA-MB-231 [27] = system: MDA-MB-231; remark: listed apart in the source
Method in brief: as §2

MCF-10A [28] = system: MCF-10A
Method in brief: as §2

MDA-MB-453 [29] = system: MDA-MB-453; remark: listed apart in the source
Method in brief: as §1

HDQ-P1 [30] = system: HDQ-P1; remark: listed apart in the source
Method in brief: as §1

CAL-85-1 [31] = system: CAL-85-1; remark: listed apart in the source
Method in brief: as §1

CAL-148 [32] = system: CAL-148; remark: listed apart in the source
Method in brief: as §1

CAL-51 [33] = system: CAL-51
Method in brief: as §1

DU-4475 [34] = system: DU-4475; remark: listed apart in the source
Method in brief: as §1

MDA-MB-453 [35] = system: MDA-MB-453; remark: listed apart in the source
Description: (§3)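 Drug sensitivity and resistance testing (DSRT) of breast cancer cell lines in 384-well plates, 5 concentrations in 10-fold dilutions over a compound-specific 10,000-fold range. After 72 h, cytotoxicity was read by CellTox Green fluorescence and viability by CellTiter-Glo luminescence (multiplexed), normalised to DMSO and benzethonium chloride controls. EC50 is the inflection point of the fitted dose-response curve (bottom asymptote free, so it can be relative for partial curves) and is censored at the highest tested concentration. Rows with DSS 0 (no meaningful response) were excluded.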

HDQ-P1 [36] = system: HDQ-P1; remark: listed apart in the source
Description: as §3

CAL-120 [37] = system: CAL-120; remark: listed apart in the source
Description: as §3

CAL-85-1 [38] = system: CAL-85-1; remark: listed apart in the source
Description: as §3

HCC1143 [39] = system: HCC1143; remark: listed apart in the source
Description: as §3

CAL-148 [40] = system: CAL-148; remark: listed apart in the source
Description: as §3

MFM-223 [41] = system: MFM-223; remark: listed apart in the source
Description: as §3

CAL-51 [42] = system: CAL-51; remark: listed apart in the source
Description: as §3

DU-4475 [43] = system: DU-4475; remark: listed apart in the source
Description: as §3

BT-549 [44] = system: BT-549; remark: listed apart in the source
Description: as §3

BT-474 [45] = system: BT-474; remark: listed apart in the source
Description: as §3

Hs578T [46] = system: Hs578T; remark: listed apart in the source
Description: as §3

MDA-MB-231 [47] = system: MDA-MB-231; remark: listed apart in the source
Description: as §3

MCF-10A [48] = system: MCF-10A; remark: listed apart in the source
Description: as §3

MDA-MB-468 [49] = system: MDA-MB-468; remark: listed apart in the source
Description: as §3

MDA-MB-436 [50] = system: MDA-MB-436; remark: listed apart in the source
Description: as §3

HCC1599 [51] = system: HCC1599; remark: listed apart in the source
Description: as §3

## CN[C@@H]1C[C@H]2O[C@@](C)([C@@H]1OC)n1c3ccccc3c3c4c(c5c6ccccc6n2c5c31)C(=O)N[C@H]4O [UCN-01]
HCC1937 [1]
  EC50, CellTiter-Blue viability: 58 nM
CAL-120 [2]
  EC50, CellTiter-Blue viability: 24.5 nM
MDA-MB-468 [3]
  EC50, CellTiter-Blue viability: 105 nM
HCC1143 [4]
  EC50, CellTiter-Blue viability: 48.5 nM
MFM-223 [5]
  EC50, CellTiter-Blue viability: 355 nM
SK-BR-3 [6]
  EC50, CellTiter-Blue viability: 80.2 nM
MDA-MB-436 [7]
  EC50, CellTiter-Blue viability: 695 nM
BT-549 [8]
  EC50, CellTiter-Blue viability: 111 nM
HCC1599 [9]
  EC50, CellTiter-Blue viability: 98.1 nM
BT-474 [10]
  EC50, CellTiter-Blue viability: 846 nM
Hs578T [11]
  EC50, CellTiter-Blue viability: 30.6 nM
MDA-MB-231 [12]
  EC50, CellTiter-Blue viability: 59.2 nM
MDA-MB-453 [13]
  EC50, CellTiter-Glo: 277 nM
HDQ-P1 [14]
  EC50, CellTiter-Glo: 217 nM
HCC1937 [15]
  EC50, CellTiter-Glo: 193 nM
CAL-120 [16]
  EC50, CellTiter-Glo: 43.6 nM
CAL-85-1 [17]
  EC50, CellTiter-Glo: 81.3 nM
HCC1143 [18]
  EC50, CellTiter-Glo: 145 nM
CAL-148 [19]
  EC50, CellTiter-Glo: 1490 nM
MFM-223 [20]
  EC50, CellTiter-Glo: 137 nM
DU-4475 [21]
  EC50, CellTiter-Glo: 184 nM
SK-BR-3 [22]
  EC50, CellTiter-Glo: 57.6 nM
MDA-MB-436 [23]
  EC50, CellTiter-Glo: 88.1 nM
BT-549 [24]
  EC50, CellTiter-Glo: 118 nM
HCC1599 [25]
  EC50, CellTiter-Glo: 28 nM
Hs578T [26]
  EC50, CellTiter-Glo: 36.8 nM
MDA-MB-231 [27]
  EC50, CellTiter-Glo: 34.4 nM
MCF-10A [28]
  EC50, CellTiter-Glo: 45.7 nM
MDA-MB-453 [29]
  EC50, CellTiter-Blue viability: 182 nM
HDQ-P1 [30]
  EC50, CellTiter-Blue viability: 59.7 nM
CAL-85-1 [31]
  EC50, CellTiter-Blue viability: 175 nM
CAL-148 [32]
  EC50, CellTiter-Blue viability: 2350 nM
CAL-51 [33]
  EC50, CellTiter-Blue viability: 140 nM
DU-4475 [34]
  EC50, CellTiter-Blue viability: 212 nM
MDA-MB-453 [35]
  EC50, CellTox Green: 6000 nM
HDQ-P1 [36]
  EC50, CellTox Green: 34.3 nM
CAL-120 [37]
  EC50, CellTox Green: 1580 nM
CAL-85-1 [38]
  EC50, CellTox Green: 168 nM
HCC1143 [39]
  EC50, CellTox Green: 114 nM
CAL-148 [40]
  EC50, CellTox Green: 6850 nM
MFM-223 [41]
  EC50, CellTox Green: 46.3 nM
CAL-51 [42]
  EC50, CellTox Green: 63.9 nM
DU-4475 [43]
  EC50, CellTox Green: 128 nM
BT-549 [44]
  EC50, CellTox Green: 220 nM
BT-474 [45]
  EC50, CellTox Green: 2470 nM
Hs578T [46]
  EC50, CellTox Green: 266 nM
MDA-MB-231 [47]
  EC50, CellTox Green: 88.8 nM
MCF-10A [48]
  EC50, CellTox Green: 130 nM

## CCC1=C[C@@H]2CN(C1)Cc1c([nH]c3ccccc13)[C@@](C(=O)OC)(c1cc3c(cc1OC)N(C)[C@H]1[C@@](O)(C(=O)OC)[C@H](OC(C)=O)[C@]4(CC)C=CCN5CC[C@]31[C@@H]54)C2 [Vinorelbine]
HCC1937 [1]
  EC50, CellTiter-Blue viability: 26.3 nM
CAL-120 [2]
  EC50, CellTiter-Blue viability: 22.5 nM
MDA-MB-468 [3]
  EC50, CellTiter-Blue viability: 33.5 nM
HCC1143 [4]
  EC50, CellTiter-Blue viability: 41.8 nM
MFM-223 [5]
  EC50, CellTiter-Blue viability: 44.4 nM
SK-BR-3 [6]
  EC50, CellTiter-Blue viability: 30.9 nM
MDA-MB-436 [7]
  EC50, CellTiter-Blue viability: 72.8 nM
BT-549 [8]
  EC50, CellTiter-Blue viability: 37.8 nM
HCC1599 [9]
  EC50, CellTiter-Blue viability: 176 nM
BT-474 [10]
  EC50, CellTiter-Blue viability: 33.5 nM
Hs578T [11]
  EC50, CellTiter-Blue viability: 39.8 nM
MDA-MB-231 [12]
  EC50, CellTiter-Blue viability: 67.6 nM
MDA-MB-453 [13]
  EC50, CellTiter-Glo: 12.6 nM
HDQ-P1 [14]
  EC50, CellTiter-Glo: 40.6 nM
HCC1937 [15]
  EC50, CellTiter-Glo: 29.5 nM
CAL-120 [16]
  EC50, CellTiter-Glo: 24.1 nM
CAL-85-1 [17]
  EC50, CellTiter-Glo: 24.5 nM
HCC1143 [18]
  EC50, CellTiter-Glo: 23.5 nM
CAL-148 [19]
  EC50, CellTiter-Glo: 35.7 nM
MFM-223 [20]
  EC50, CellTiter-Glo: 76.8 nM
DU-4475 [21]
  EC50, CellTiter-Glo: 1510 nM
SK-BR-3 [22]
  EC50, CellTiter-Glo: 3.1 nM
MDA-MB-436 [23]
  EC50, CellTiter-Glo: 42.9 nM
BT-549 [24]
  EC50, CellTiter-Glo: 26.3 nM
HCC1599 [25]
  EC50, CellTiter-Glo: 206 nM
Hs578T [26]
  EC50, CellTiter-Glo: 69.7 nM
MDA-MB-231 [27]
  EC50, CellTiter-Glo: 119 nM
MCF-10A [28]
  EC50, CellTiter-Glo: 27.3 nM
MDA-MB-453 [29]
  EC50, CellTiter-Blue viability: 9.96 nM
HDQ-P1 [30]
  EC50, CellTiter-Blue viability: 74 nM
CAL-85-1 [31]
  EC50, CellTiter-Blue viability: 23.1 nM
CAL-148 [32]
  EC50, CellTiter-Blue viability: 49.1 nM
CAL-51 [33]
  EC50, CellTiter-Blue viability: 116 nM
DU-4475 [34]
  EC50, CellTiter-Blue viability: 304 nM
CAL-120 [37]
  EC50, CellTox Green: 1500 nM
CAL-85-1 [38]
  EC50, CellTox Green: 23.2 nM
MDA-MB-468 [49]
  EC50, CellTox Green: 3510 nM
CAL-148 [40]
  EC50, CellTox Green: 42.5 nM
MFM-223 [41]
  EC50, CellTox Green: 5.52 nM
CAL-51 [42]
  EC50, CellTox Green: 45.2 nM
MDA-MB-436 [50]
  EC50, CellTox Green: 273 nM
BT-549 [44]
  EC50, CellTox Green: 492 nM
HCC1599 [51]
  EC50, CellTox Green: 356 nM
BT-474 [45]
  EC50, CellTox Green: 85.9 nM
Hs578T [46]
  EC50, CellTox Green: 95.4 nM
MDA-MB-231 [47]
  EC50, CellTox Green: 263 nM
MCF-10A [48]
  EC50, CellTox Green: 13.7 nM
